Test system: NFκB and AP-1
Assay: NFκB and AP-1 luciferase reporter assays in stable Jurkat T-cells (PMA/PHA stimulated)
Assay type: cell-based, human
Settings: Homo sapiens, average of NFκB and AP-1 assays, read-out: ICm (average of the measurements obtained from the NFκB and AP-1 assays)
Excerpt: Stable human Jurkat T-cells containing an NFκB binding site (from the MHC promoter) fused to a minimal SV-40 promoter driving luciferase expression were used in this experiment. Cells were split to 3×10^5 cells/mL every 2-3 days (cell concentration should not exceed 1×10^6 cells/mL to keep the cells proliferating in log phase). These cells were counted, resuspended in fresh medium containing 10% Serum-Plus at a density of 1×10^6 cells/mL and plated in 96 well round bottom plates (200 μ.LAMBDA. per well) 18 hours prior to starting the experiment.
Compounds of this invention, dissolved in dimethyl sulfoxide (3.3, 0.33 and 0.03 μg/mL), were then added to the 96 well plates containing the cells and the plates were incubated for 0.5 h at 37° C. Then 50 ng/mL of phorbol 12-myristate-13-acetate (PMA) and 1 μg/mL of phytohemagglutinin (PHA) were added to each well and the cells were incubated for an additional 5 h at 37° C. The plates were centrifuged at 2200 RPM for 3 minutes at room temperature and then the medium was removed. To each well was added 60 μL of cell lysis buffer and the plates were left at room temperature for 0.25 h. Then 40 μL of each cell extract was transferred to a black 96 well plate and 50 μL of luciferase substrate buffer was added. Luminescence was immediately measured using a Packard TopCount.
For AP-1, the assay was run as described above for NFκB except stable Jurkat T-cells were used that contained a collagenase promoter driving luciferase expression. In addition, the concentration of PMA used was 5 ng/mL.
The IC50 values reported in Table 3 are the average of the measurements obtained from the NFκB and AP-1 assays described above.

| Compound | IC50 |
| --- | --- |
| CCOC(=O)c1cnc(N(C(=O)OCC)N2C(=O)C=C(C)C2=O)nc1C(F)(F)F [Example 99, ETHYL 2-[N-(1'-AMINOCITRACONAMIDO)-N-(ETHOXYCARBONYL)]-4-TRIFLUOROMETHYLPYRIMIDINE-5-CARBOXYLATE] | 400 nM |
| CCOC(=O)c1cnc(N(C)N2C(=O)C=C(C)C2=O)nc1C(F)(F)C(F)(F)F [Example 103, ETHYL-2-[N-(1'-AMINOCITRACONAMIDO)-N-METHYL]-4-PENTAFLUOROETHYLPYRIMIDINE-5-CARBOXYLATE] | 400 nM |
| CC1=CC(=O)N(N(C)c2ncc(-c3nc(C)co3)c(-c3cccs3)n2)C1=O [Example 127, 2-[N-(1'-AMINOCITRACONAMIDO)-N-METHYL]-5-[2"-(4"-METHYL)OXAZOLYL]-4-(2'"-THIENYL)PYRIMIDINE] | 750 nM |
| CCN(c1ncc(C(=O)OC)c(C(F)(F)F)n1)N1C(=O)C=C(C)C1=O [Example 94, METHYL 2-[N-(1'-AMINOCITRACONAMIDO-N-ETHYL)]-4-TRIFLUOROMETHYLPYRIMIDINE-5-CARBOXYLATE] | 1100 nM |
| CC1=CC(=O)N(Nc2nc(-c3cccs3)ncc2-c2nnc(C)o2)C1=O [Example 142, 4-[N-(1'-AMINOCITRACONAMIDO)]-5-(5"-METHYL-1",3",4"-OXADIAZOL-2"-YL)-2-(2'"-THIENYL)PYRIMIDINE] | 250 nM |
| COC(=O)c1cnc(NN2C(=O)C=C(C)C2=O)nc1C(F)(F)C(F)(F)F [Example 77, METHYL 2-[N-(1'-AMINOCITRACONAMIDO)]-4-PENTAFLUOROETHYLPYRIMIDINE-5-CARBOXYLATE] | 1300 nM |
| COCc1cnc(NN2C(=O)C=C(C)C2=O)nc1C(F)(F)F [Example 113, 2-[N-(1'-AMINOCITRACONAMIDO)]-5-(METHOXYMETHYL)-4-TRIFLUOROMETHYLPYRIMIDINE] | 1000 nM |
| CC1=CC(=O)N(Nc2nc(-c3cccs3)ncc2-c2nc(C)co2)C1=O [Example 137, 4-[N-(1'-AMINOCITRACONAMIDO)]-5-(4"-METHYLOXAZOL-2-YL)-2-(2'"-THIENYL)PYRIMIDINE] | 310 nM |
| CCOC(=O)c1cnc(N(C)N2C(=O)C=C(C)C2=O)nc1CC [Example 73, ETHYL 2-[N-(1'-AMINOCITRACONAMIDO)-N-METHYL]-4-ETHYLPRYRIMIDINE-5-CARBOXYLATE] | 50 nM |
| CCOC(=O)c1cnc(NN2C(=O)C=C(C)C2=O)nc1-c1ccc(C)s1 [Example 90, ETHYL 2-[N-(1'-AMINOCITRACONAMIDO)]-4-[2'-(5'-METHYLTHIENYL)]PYRIMIDINE-5-CARBOXYLATE] | 60 nM |
| CCc1nc(N(C)N2C(=O)C=C(C)C2=O)ncc1CO [Example 111, 2-[N-(1'-AMINOCITRACONAMIDO)-N-METHYL]-4-ETHYL-5-(HYDROXYMETHYL)PYRIMIDINE] | 4900 nM |
| CCCC(=O)c1cnc(N(C)N2C(=O)C=C(C)C2=O)nc1CC [Example 107, 5-BUTANOYL 2-[N-(1'-AMINOCITRACONAMIDO-N-METHYL)]-4-ETHYLPYRIMIDINE] | 500 nM |
| CCOC(=O)c1cnc(-c2cccs2)nc1NN1C(=O)C=C(C)C1=O [Example 122, ETHYL 4-[N-(1'-AMINOCITRACONAMIDO)]-2-(2'-THIENYL)-PYRIMIDINE-5-CARBOXYLATE] | 20 nM |
| CCOC(=O)c1cnc(N(C)N2C(=O)C=C(C)C2=O)nc1C1CC1 [Example 109, ETHYL 2-[N-(1'-AMINOCITRACONAMIDO-N-METHYL)]-4-CYCLOPROPYLPYRIMIDINE-5-CARBOXYLATE] | 200 nM |
| COC(=O)c1cnc(N(C)N2C(=O)C=C(C)C2=O)nc1C(F)(F)F [Example 81, METHYL 2-[N-(1'-AMINOCITRACONAMIDO)-N-METHYL]-4-TRIFLUOROMETHYLPYRIMIDINE-5-CARBOXYLATE] | 100 nM |
| CCCc1nc(N(C(C)=O)N2C(=O)C=C(C)C2=O)ncc1C(=O)OCC [Example 74, ETHYL 2-[N-ACETYL-N-(1'-AMINOCITRACONAMIDO)]-4-PROPYLPYRIMIDINE-5-CARBOXYLATE] | 450 nM |
| CCOC(=O)c1cnc(N(C)N2C(=O)C=C(C)C2=O)nc1C(F)(F)F [Example 42, ETHYL 2-[N-(1'-AMINOCITRACONAMIDO)-N-METHYL]-4-TRIFLUOROMETHYLPYRIMIDINE-5-CARBOXYLATE] | 5000 nM |

From US5935966A, “Pyrimidine carboxylates and related compounds and methods for treating inflammatory conditions” (Signal Pharmaceuticals, Inc., priority 1996, dated 1999)
